Assays:
[1] = molecular target: T1, Avi-KRAS G12V (1-169) GppNHp/RAF1 RBD-3xFLAG (52-151) (Homo sapiens, UniProt P01116, G12V); experiment: Raf1-KRAS G12V-GppNHP disruption HTRF assay (Biological Example 1); assay type: binding
T1 construct: Avi-KRAS G12V (1-169)
In short: (§1)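 First, protein mix in Tris pH 7.5 buffer with NaCl, MgCl2, BSA, Tween and 10% DMSO is incubated 1 h at room temperature. Next, reagent mix is added and incubated a further 1 h at room temperature. Finally, HTRF is read and activity normalized to DMSO.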

[2] = molecular target: T2, Avi-KRAS G12D (1-169) GppNHp/RAF1 RBD-3xFLAG (52-151) (Homo sapiens, UniProt P01116, G12D); experiment: Raf1-KRAS G12D-GppNHP disruption HTRF assay (Biological Example 1); assay type: binding
T2 construct: Avi-KRAS G12D (1-169)
T2 sequence (P01116 1-169 isoform P01116-2 G12D): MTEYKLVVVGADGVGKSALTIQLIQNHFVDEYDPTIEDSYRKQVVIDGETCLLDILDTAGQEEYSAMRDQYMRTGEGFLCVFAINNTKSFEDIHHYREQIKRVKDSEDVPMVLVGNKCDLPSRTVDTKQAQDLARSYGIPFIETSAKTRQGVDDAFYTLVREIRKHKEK
In short: as §1

[3] = molecular target: T3, Avi-KRAS G12R (1-169) GppNHp/RAF1 RBD-3xFLAG (52-151) (Homo sapiens, UniProt P01116, G12R); experiment: Raf1-KRAS G12R-GppNHP disruption HTRF assay (Biological Example 1); assay type: binding
T3 construct: Avi-KRAS G12R (1-169)
T3 sequence (P01116 1-169 isoform P01116-2 G12R): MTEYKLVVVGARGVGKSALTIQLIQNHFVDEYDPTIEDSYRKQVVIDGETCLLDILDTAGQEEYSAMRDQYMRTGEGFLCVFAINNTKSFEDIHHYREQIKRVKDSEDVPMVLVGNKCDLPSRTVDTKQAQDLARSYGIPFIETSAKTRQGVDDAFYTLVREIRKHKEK
In short: as §1

[4] = system: SW620 cells (KRAS G12V); experiment: Cell-based pERK HTRF assay in SW620 cell (Biological Example 4)
In short: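 SW620 cells were treated for 4 h with compound in a 9-point half-log series from 1 μM top (0.25% DMSO), then lysed. Phospho-ERK was detected by HTRF with d2 and Eu cryptate antibodies after 4–24 h at room temperature, read at 615 nm emission.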

[5] = molecular target: T4, Avi-KRAS WT (1-169) GppNHp/RAF1 RBD-3xFLAG (52-151) (Homo sapiens, UniProt P01116); experiment: Raf1-KRAS WT-GppNHP disruption HTRF assay (Biological Example 1); assay type: binding
T4 construct: Avi-KRAS WT (1-169)
T4 sequence (P01116 1-169 isoform P01116-2): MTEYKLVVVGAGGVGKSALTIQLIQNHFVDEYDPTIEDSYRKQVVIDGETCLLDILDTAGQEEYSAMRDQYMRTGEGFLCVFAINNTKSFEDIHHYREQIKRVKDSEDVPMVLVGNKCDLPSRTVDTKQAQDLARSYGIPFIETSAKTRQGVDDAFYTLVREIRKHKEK
In short: as §1

[6] = molecular target: T5, Avi-KRAS G12V (2-169) GTP/RAF1 RBD-3xFLAG (51-131) (Homo sapiens, UniProt P01116, G12V); experiment: Raf1-KRAS G12V-GTP disruption HTRF assay (Biological Example 3); assay type: binding; conditions: KRAS G12V, GTP-loaded
T5 construct: Avi-KRAS G12V (2-169)
T5 sequence (P01116 2-169 isoform P01116-2 G12V): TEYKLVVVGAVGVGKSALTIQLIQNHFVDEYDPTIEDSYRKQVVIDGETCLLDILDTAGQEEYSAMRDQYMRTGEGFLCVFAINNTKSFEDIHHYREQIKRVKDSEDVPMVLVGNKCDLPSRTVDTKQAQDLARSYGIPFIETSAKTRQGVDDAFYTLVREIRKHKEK
In short: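 50 nM Avi-KRAS (2-169) GTP/RAF1 RBD complex; 75 nM RBD-Avi; pH 7.5 Tris buffer, 10% DMSO; cpd 30 μM top, 3x, 10 pts; 1 h RT, 700 rpm; HTRF, % of DMSO.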

[7] = Homo sapiens, SW-620, SW620 (KRAS G12V) cells
[8] = Homo sapiens, SW-620, SW620 (KRAS G12V) cells, pERK HTRF
[9] = KRAS G12V, GppNHp-loaded, class symbols
[10] = KRAS G12D, GppNHp-loaded, class symbols
[11] = KRAS G12R, GppNHp-loaded, class symbols
[12] = Homo sapiens, SW-620, SW620 (KRAS G12V) cells, pERK HTRF, class symbols
[13] = KRAS WT, GppNHp-loaded, class symbols

T1 sequence (P01116 1-169 isoform P01116-2 G12V): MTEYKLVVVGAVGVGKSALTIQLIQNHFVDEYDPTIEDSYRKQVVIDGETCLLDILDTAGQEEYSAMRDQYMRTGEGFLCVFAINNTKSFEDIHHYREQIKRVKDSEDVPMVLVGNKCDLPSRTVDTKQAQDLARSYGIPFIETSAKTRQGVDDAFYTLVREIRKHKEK

Compound	IC50 ([1]; KRAS G12V-GppNHp/RAF1 RBD HTRF) [nM]	IC50 ([2]; KRAS G12D-GppNHp/RAF1 RBD HTRF) [nM]	IC50 ([3]; KRAS G12R-GppNHp/RAF1 RBD HTRF) [nM]	IC50 [4, 7] [nM]	IC50 [4, 8] [nM]	IC50 ([5]; KRAS WT-GppNHp/RAF1 RBD HTRF) [nM]	IC50 [6] [nM]	IC50 [1, 9] [nM]	IC50 [2, 10] [nM]	IC50 [3, 11] [nM]	IC50 [4, 12] [nM]	IC50 [5, 13] [nM]	IC50 ([4]; SW620 (KRAS G12V) cells, pERK HTRF) [nM]
[2H]C1([2H])O[C@@H]2C[C@H]1N(c1nc(OC[C@@]34CCCN3C[C@H](F)C4)nc3c(F)c(-c4ccc(F)c5sc(N)c(C#N)c45)c(C(F)(F)F)cc13)C2 [Compound 371]	100 to 1000	100 to 1000	100 to 1000	< 100	< 100	100 to 1000	1000 to 10000						
CCN(c1nc(OC[C@@]23CCCN2C[C@H](F)C3)nc2c(F)c(-c3ccc(F)c4sc(N)c(C#N)c34)c(C(F)(F)F)cc12)[C@H]1CCN(C(=O)[C@@H]2C[C@@H]2C)C1 (atropisomer, axis not shown) [Compound 689]				< 100			100 to 1000	< 100	< 100	< 100	< 100	100 to 1000	
CCN(c1nc(OC[C@@]23CCCN2C[C@H](F)C3)nc2c(F)c(-c3ccc(F)c4sc(N)c(C#N)c34)c(C(F)(F)F)cc12)[C@H]1CCN(C(=O)OC)C1 [Compound 394]	< 100	< 100	< 100	< 100	< 100	< 100	100 to 1000						
Cc1c(C(=O)N2CCCC2)nn2c1CN(c1nc(OCC34CCCN3CC(F)C4)nc3c(F)c(-c4ccc(F)c5sc(N)c(C#N)c45)c(C(F)(F)F)cc13)CC2 (stereo not shown) [Compound 744]				< 100			100 to 1000	100 to 1000	100 to 1000	100 to 1000	< 100	100 to 1000	
CCC(=O)N1CC[C@@H](N(CC)c2nc(OC[C@@]34CCCN3C[C@H](F)C4)nc3c(F)c(-c4ccc(F)c5sc(N)c(C#N)c45)c(C(F)(F)F)cc23)C1 [Compound 327]	100 to 1000	100 to 1000	100 to 1000	< 100	< 100	100 to 1000	100 to 1000						
CCN(c1nc(OC[C@@]23CCCN2C[C@H](F)C3)nc2c(F)c(-c3ccc(F)c4sc(N)c(C#N)c34)c(C(F)(F)F)cc12)[C@H]1CCN(C(=O)C2CC2)C1 [Compound 331]	100 to 1000	< 100	< 100	< 100	< 100	100 to 1000	100 to 1000						
CCN(c1nc(OC[C@@]23CCCN2C[C@H](F)C3)nc2c(F)c(-c3ccc(F)c4sc(N)c(C#N)c34)c(C(F)(F)F)cc12)[C@H]1CC(=O)N(C2CC2)C1 (atropisomer, axis not shown) [Compound 615]				< 100			≤ 100	< 100	< 100	< 100	< 100	< 100	
CCN(c1nc(OC[C@@]23CCCN2C[C@H](F)C3)nc2c(F)c(-c3ccc(F)c4sc(N)c(C#N)c34)c(C(F)(F)F)cc12)[C@H]1CCN(C(=O)N2CC(F)C2)C1 (atropisomer, axis not shown) [Compound 606]				< 100			≤ 100	< 100	< 100	< 100	< 100	< 100	
C[C@@H]1[C@H](N(C)c2nc(OC[C@@]34CCCN3C[C@H](F)C4)nc3c(F)c(-c4ccc(F)c5sc(N)c(C#N)c45)c(C(F)(F)F)cc23)CCN1C(=O)C1CC1 (atropisomer, axis not shown) [Compound 333]	100 to 1000	< 100	< 100	< 100		< 100	100 to 1000						< 100
CCN(c1nc(OC[C@@]23CCCN2C[C@H](F)C3)nc2c(F)c(-c3ccc(F)c4sc(N)c(C#N)c34)c(C(F)(F)F)cc12)[C@H]1CCN(C(=O)O[C@@H]2CCOC2)C1 (atropisomer, axis not shown) [Compound 683]				< 100			≤ 100	< 100	< 100	< 100	< 100	< 100	
